Columns and labels:
Details in all cases: incubation time: 72 h
MDA-MB-453 [1] = assay: normalised response (% of control), CellTox Green; higher = less cell death (100 = DMSO, 0 = benzethonium chloride kill control)
Summary of the method: (§1)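 The table gives the normalised signal for a single concentration in each entry. Breast cancer cell lines were seeded (20 µl suspension) into 384-well plates holding compound at 5 concentrations in 10-fold steps over a compound-specific 10,000-fold range and incubated 72 h, then read for CellTox Green fluorescence (485/520 nm) and CellTiter-Glo luminescence. Normalisation on each plate used 0.1 % DMSO (100) and a positive kill control (0).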

HCC1599 [2] = assay: as above
Summary of the method: as §1

CAL-85-1 [3] = assay: as above
Summary of the method: as §1

BT-474 [4] = assay: as above
Summary of the method: as §1

MDA-MB-436 [5] = assay: as above
Summary of the method: as §1

BT-549 [6] = assay: as above
Summary of the method: as §1

MDA-MB-231 [7] = assay: as above
Summary of the method: as §1

DU-4475 [8] = assay: as above
Summary of the method: as §1

MFM-223 [9] = assay: as above
Summary of the method: as §1

MDA-MB-468 [10] = assay: as above
Summary of the method: as §1

HCC1143 [11] = assay: as above
Summary of the method: as §1

CAL-148 [12] = assay: as above
Summary of the method: as §1

CAL-120 [13] = assay: as above
Summary of the method: as §1

Hs578T [14] = assay: as above
Summary of the method: as §1

MCF-10A [15] = assay: as above
Summary of the method: as §1

HCC1937 [16] = assay: as above
Summary of the method: as §1

CAL-51 [17] = assay: as above
Summary of the method: as §1

MDA-MB-453 [18] = assay: normalised response (% of control), CellTiter-Glo; higher = more viable cells (100 = DMSO, 0 = benzethonium chloride kill control)
Summary of the method: as §1

HCC1599 [19] = assay: as above
Summary of the method: as §1

CAL-85-1 [20] = assay: as above
Summary of the method: as §1

BT-474 [21] = assay: as above
Summary of the method: as §1

HDQ-P1 [22] = assay: as above
Summary of the method: as §1

MDA-MB-436 [23] = assay: as above
Summary of the method: as §1

BT-549 [24] = assay: as above
Summary of the method: as §1

MDA-MB-231 [25] = assay: as above
Summary of the method: as §1

DU-4475 [26] = assay: as above
Summary of the method: as §1

MFM-223 [27] = assay: as above
Summary of the method: as §1

MDA-MB-468 [28] = assay: as above
Summary of the method: as §1

SK-BR-3 = assay: as above
Summary of the method: as §1

HCC1143 [29] = assay: as above
Summary of the method: as §1

CAL-148 [30] = assay: as above
Summary of the method: as §1

CAL-120 [31] = assay: as above
Summary of the method: as §1

Hs578T [32] = assay: as above
Summary of the method: as §1

MCF-10A [33] = assay: as above
Summary of the method: as §1

HCC1937 [34] = assay: as above
Summary of the method: as §1

CAL-51 [35] = assay: as above
Summary of the method: as §1

HDQ-P1 [36] = assay: normalised response (% of control), CellTox Green; higher = less cell death (100 = DMSO, 0 = benzethonium chloride kill control)
Summary of the method: as §1

Structure (SMILES) | normalised response (MDA-MB-453 [1]) [%] | normalised response (HCC1599 [2]) [%] | normalised response (CAL-85-1 [3]) [%] | normalised response (BT-474 [4]) [%] | normalised response (MDA-MB-436 [5]) [%] | normalised response (BT-549 [6]) [%] | normalised response (MDA-MB-231 [7]) [%] | normalised response (DU-4475 [8]) [%] | normalised response (MFM-223 [9]) [%] | normalised response (MDA-MB-468 [10]) [%] | normalised response (HCC1143 [11]) [%] | normalised response (CAL-148 [12]) [%] | normalised response (CAL-120 [13]) [%] | normalised response (Hs578T [14]) [%] | normalised response (MCF-10A [15]) [%] | normalised response (HCC1937 [16]) [%] | normalised response (CAL-51 [17]) [%] | normalised response (MDA-MB-453 [18]) [%] | normalised response (HCC1599 [19]) [%] | normalised response (CAL-85-1 [20]) [%] | normalised response (BT-474 [21]) [%] | normalised response (HDQ-P1 [22]) [%] | normalised response (MDA-MB-436 [23]) [%] | normalised response (BT-549 [24]) [%] | normalised response (MDA-MB-231 [25]) [%] | normalised response (DU-4475 [26]) [%] | normalised response (MFM-223 [27]) [%] | normalised response (MDA-MB-468 [28]) [%] | normalised response (SK-BR-3) [%] | normalised response (HCC1143 [29]) [%] | normalised response (CAL-148 [30]) [%] | normalised response (CAL-120 [31]) [%] | normalised response (Hs578T [32]) [%] | normalised response (MCF-10A [33]) [%] | normalised response (HCC1937 [34]) [%] | normalised response (CAL-51 [35]) [%] | normalised response (HDQ-P1 [36]) [%]
CC[C@@H]1C(=O)N(C)c2cnc(Nc3ccc(C(=O)NC4CCN(C)CC4)cc3OC)nc2N1C1CCCC1 [BI 2536] (100 nM) | 103 | 91.7 | 71.5 | 100 | 82.5 | 93 | 24.3 | 98.5 | 70.5 | 73.3 | 79.2 | 97.7 | 87.1 | 82 | 36.6 | 113 | 49.6 | 86.5 | 37.9 | 81.7 | 55.9 | 84 | 53.1 | 23.6 | 51 | 63.3 | 49.1 | 47.9 | 17.6 | 47.5 | 68.1 | 63.4 | 38.8 | 60.3 | 86.7 | 21.9 | 
O=C(O)CCCCC(CCSCc1ccccc1)SCc1ccccc1 (stereo unspecified) [CPI-613] (1000 nM) | 103 | 95.5 | 96.8 | 98.6 | 81.4 | 92.6 | 109 | 100 | 98.7 | 114 | 58.7 | 94.6 | 102 | 103 | 92.8 | 117 | 111 | 103 | 108 | 97.1 | 98.5 | 102 | 99.5 | 102 | 102 | 99.1 | 108 | 108 | 100 | 102 | 100 | 98.1 | 106 | 103 | 101 | 114 | 
COc1cc2c(Oc3ccc4[nH]c(C)cc4c3F)ncnc2cc1OCCCN1CCCC1 [Cediranib] (100 nM) | 105 | 102 | 91.2 | 104 | 90.2 | 126 | 113 | 98.4 | 84.1 | 98.6 | 112 | 106 | 96.8 | 97.6 | 98.1 | 123 | 109 | 102 | 98 | 100 | 104 | 102 | 106 | 108 | 103 | 97.3 | 97.9 | 111 | 103 | 97.3 | 103 | 103 | 104 | 95.4 | 98.1 | 107 | 
Cc1ccc(-c2cc(C(F)(F)F)nn2-c2ccc(S(N)(=O)=O)cc2)cc1 [Celecoxib] (1000 nM) | 105 | 99.1 | 104 | 101 | 105 | 115 | 106 | 101 | 96 | 121 | 104 | 104 | 101 |  | 81.4 | 111 | 117 | 99 | 99.6 | 93.3 | 100 | 100 | 101 | 107 | 96.4 | 94 | 100 | 99.8 | 101 | 99.9 | 91.3 | 98.1 | 107 | 112 | 109 | 118 | 112
Nc1ncn([C@H]2C[C@H](O)[C@@H](CO)O2)c(=O)n1 [Decitabine] (1000 nM) | 84.1 | 101 | 89.9 | 98.6 | 100 | 116 | 121 | 97.4 | 93.6 | 115 | 80.5 | 103 | 93.6 | 112 | 78.9 | 110 | 77.8 | 112 | 103 | 105 | 90.3 | 93.2 | 97.3 | 77.8 | 98.4 | 90.1 | 96.5 | 26.2 | 85.5 | 90.4 | 83.5 | 91.7 | 93 | 93.5 | 87.9 | 83.6 | 
Nc1nc(F)nc2c1ncn2[C@@H]1O[C@H](CO)[C@@H](O)[C@@H]1O [Fludarabine] (1000 nM) | 101 | 105 | 109 | 102 |  | 107 | 114 | 105 | 101 | 124 | 117 | 99.5 | 101 | 50.2 | 79.7 | 88.6 | 122 | 101 | 108 | 98.5 | 110 | 102 | 102 | 98.2 | 108 | 102 | 107 | 102 | 107 | 106 | 97.2 | 97.8 | 102 | 106 | 99.3 | 131 | 111
CC[C@H](Nc1ncnc2[nH]cnc12)c1nc2cccc(F)c2c(=O)n1-c1ccccc1 [GS-1101] (1000 nM) | 107 | 93.7 | 94.1 | 98.7 |  | 105 | 84.2 | 96.9 | 101 | 88.1 | 97.4 | 80.2 | 96.9 | 93.8 | 112 |  | 88.6 | 89.6 | 110 | 93.2 | 84.6 | 87.7 | 85.3 | 82.8 | 85.5 | 92.3 | 90.3 | 86.9 | 79.6 | 84.9 | 97.7 | 89.9 | 100 | 78.9 | 94.9 | 97.3 | 106
C=CC(=O)N1CCC[C@@H](n2nc(-c3ccc(Oc4ccccc4)cc3)c3c(N)ncnc32)C1 [Ibrutinib] (100 nM) | 104 | 99.2 | 84.1 | 83.1 | 92.1 | 117 | 111 | 103 |  | 122 | 92.1 | 99.6 | 103 | 56.5 | 101 |  | 93.6 | 72.5 | 118 | 90.4 | 97.5 | 82.5 | 102 | 111 | 105 | 105 | 107 | 93.1 | 27.5 | 100 | 95.4 | 96.2 | 106 | 91 | 97.6 | 73.1 | 102
C[C@H]1C[C@@H]2[C@H]([C@@H](O)C[C@@]3(C)[C@H]2CC[C@]3(O)C(=O)CO)[C@@]2(C)C=CC(=O)C=C12 [Methylprednisolone] (1000 nM) | 98.5 | 109 | 104 | 98.6 |  | 131 | 142 | 103 |  | 109 | 108 | 107 | 101 | 105 | 108 | 127 | 108 | 101 | 105 | 117 | 151 | 83.2 | 105 | 100 | 159 | 100 | 106 | 119 | 94.5 | 109 | 108 | 80.5 | 114 | 96.7 | 97.9 | 108 | 105
